Molecules are shown by their SMILES.

19 compounds from US9695154B2, “Heteroaryl inhibitors of sumo activating enzyme” (MILLENNIUM PHARMACEUTICALS, INC., priority 2013, dated 2017) can be followed below.

The target of the test is T1, recombinant human SAE enzyme (Homo sapiens, UniProt Q9UBT2).
T1 sequence (Q9UBT2 1-640): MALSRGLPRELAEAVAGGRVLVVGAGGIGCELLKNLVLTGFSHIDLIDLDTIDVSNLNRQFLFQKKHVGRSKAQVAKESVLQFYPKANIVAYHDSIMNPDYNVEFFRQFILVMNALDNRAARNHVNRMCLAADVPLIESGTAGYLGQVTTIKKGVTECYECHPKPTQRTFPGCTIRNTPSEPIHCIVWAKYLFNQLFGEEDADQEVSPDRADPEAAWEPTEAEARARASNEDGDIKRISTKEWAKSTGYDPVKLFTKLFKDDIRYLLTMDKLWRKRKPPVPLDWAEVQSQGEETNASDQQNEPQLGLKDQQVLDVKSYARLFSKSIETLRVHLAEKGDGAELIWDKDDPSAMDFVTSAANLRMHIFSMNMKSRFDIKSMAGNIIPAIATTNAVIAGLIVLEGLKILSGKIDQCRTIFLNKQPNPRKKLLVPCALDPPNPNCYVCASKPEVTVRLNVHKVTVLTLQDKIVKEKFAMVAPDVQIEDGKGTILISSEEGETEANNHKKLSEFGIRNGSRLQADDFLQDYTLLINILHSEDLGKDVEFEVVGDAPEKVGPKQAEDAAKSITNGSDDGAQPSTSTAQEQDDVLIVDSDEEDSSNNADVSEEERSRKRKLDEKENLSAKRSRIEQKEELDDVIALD
T1 sequence (Q9UBE0 1-346 partner): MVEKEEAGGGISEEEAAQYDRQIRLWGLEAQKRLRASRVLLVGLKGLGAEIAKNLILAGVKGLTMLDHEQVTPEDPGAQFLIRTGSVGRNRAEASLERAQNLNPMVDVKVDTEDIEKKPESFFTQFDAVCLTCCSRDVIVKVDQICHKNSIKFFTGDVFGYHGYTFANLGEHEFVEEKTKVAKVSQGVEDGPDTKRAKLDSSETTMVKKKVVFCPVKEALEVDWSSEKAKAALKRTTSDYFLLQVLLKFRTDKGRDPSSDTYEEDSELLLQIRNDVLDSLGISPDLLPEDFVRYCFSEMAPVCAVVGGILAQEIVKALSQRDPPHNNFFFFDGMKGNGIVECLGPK
The test can be described thus: SAE HTRF Enzyme Assay. The following applies: for IC50: class symbols A-C; for inhibition at 0.111 µM: compound concentration 0.111 μM, read-out: Percent Inhibition. Type of test: biochemical. The method in brief: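 SAE 0.11 nM; ATP 0.5 μM; Sumo-Flag 0.125 μM; Ubc9-GST 0.01 μM; 250 μM GSH, 5 mM MgCl2, pH 7.5. 105 min, 24° C. EDTA/KF stop plus Eu/APC antibodies, 2 h, TR-FRET. % inhibition or IC50.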
A general note: TR-FRET usually uses a lanthanide donor and a delayed reading to cut background.

The IC50 is the point on the concentration scale where inhibition reaches its midpoint. As a reminder, the inhibition is the relative decrease from the control value, in per cent. Consider `NS(=O)(=O)OC[C@H]1C[C@@H](Nc2ncncc2C(=O)c2ccn(CCc3c[nH]c4ccccc34)n2)[C@H](O)[C@@H]1O` [Compound I-33, [(1R,2R,3S,4R)-2,3-dihydroxy-4-{[5-({1-[2-(1H-indol-3-yl)ethyl]-1H-pyrazol-3-yl}carbonyl)pyrimidin-4-yl]amino}cyclopentyl]methyl sulfamate], for which the IC50 was below 10 nM and the inhibition at 0.111 µM was found to be 98%.

For the compound `NS(=O)(=O)OC[C@H]1C[C@@H](Nc2ncncc2C(=O)c2ccn(Cc3ccc(Cl)c(C(F)(F)F)c3)n2)[C@H](O)[C@@H]1O` [Compound I-34, [(1R,2R,3S,4R)-4-{[5-({1-[4-chloro-3-(trifluoromethyl)benzyl]-1H-pyrazol-3-yl}carbonyl)pyrimidin-4-yl]amino}-2,3-dihydroxycyclopentyl] methyl sulfamate], the IC50 is below 10 nM and the inhibition at 0.111 µM is 99%.

In the case of `NS(=O)(=O)OC[C@H]1C[C@@H](Nc2ncncc2C(=O)c2ccn(Cc3cc(F)ccc3F)n2)C[C@@H]1O` [Compound I-35, {(1R,2S,4R)-4-[(5-{[1-(2,5-difluorobenzyl)-1H-pyrazol-3-yl]carbonyl}pyrimidin-4-yl)amino]-2-hydroxycyclopentyl}methyl sulfamate], the IC50 was below 10 nM and the inhibition at 0.111 µM was 95%.

On to `NS(=O)(=O)OC[C@H]1C[C@@H](Nc2ncncc2C(=O)c2cc(Cl)n(Cc3ccc(C(F)(F)F)o3)c2)[C@@H](F)[C@@H]1O` [Compound I-36, [(1R,2R,3R,4R)-4-({5-[(5-chloro-1-{[5-(trifluoromethyl)-2-furyl]methyl}-1H-pyrrol-3-yl)carbonyl]pyrimidin-4-yl}amino)-3-fluoro-2-hydroxycyclopentyl]methyl sulfamate], for which the IC50 is below 10 nM and the inhibition at 0.111 µM came to 99%.

As for `CSCCn1ccc(C(=O)c2cncnc2N[C@@H]2C[C@H](COS(N)(=O)=O)[C@@H](O)C2)n1` [Compound I-37, [(1R,2S,4R)-2-hydroxy-4-{[5-({1-[2-(methylsulfanyl)ethyl]-1H-pyrazol-3-yl}carbonyl)pyrimidin-4-yl]amino}cyclopentyl]methyl sulfamate], the IC50 lay within 100 to 1000 nM and the inhibition at 0.111 µM is 42%.

As to `NS(=O)(=O)CC[C@H]1C[C@@H](Nc2ncncc2C(=O)c2ccn(Cc3cccc(Br)c3)n2)C[C@@H]1O` [Compound I-38, 2-{(1R,2S,4R)-4-[(5-{[1-(3-bromobenzyl)-1H-pyrazol-3-yl]carbonyl}pyrimidin-4-yl)amino]-2-hydroxycyclopentyl}ethanesulfonamide], the IC50 lay within 100 to 1000 nM and the inhibition at 0.111 µM was found to be 51%.

With `NS(=O)(=O)OC[C@H]1C[C@@H](Nc2ncncc2C(=O)c2ccn(Cc3ccccc3OC(F)(F)F)n2)C[C@@H]1O` [Compound I-39, [(1R,2S,4R)-2-hydroxy-4-{[5-({1-[2-(trifluoromethoxy)benzyl]-1H-pyrazol-3-yl}carbonyl)pyrimidin-4-yl]amino}cyclopentyl]methyl sulfamate], the IC50 was below 10 nM and the inhibition at 0.111 µM was 98%.

Take `NS(=O)(=O)OC[C@H]1C[C@@H](Nc2ncncc2C(=O)c2ccn(Cc3cccc(Cl)c3)n2)[C@H](O)[C@@H]1O` [Compound I-40, {(1R,2R,3S,4R)-4-[(5-{[1-(3-Chlorobenzyl)-1H-pyrazol-3-yl]carbonyl}pyrimidin-4-yl)amino]-2,3-dihydroxycyclopentyl}methyl sulfamate]: the half-inhibitory concentration (IC50) was below 10 nM and the inhibition at 0.111 µM came out at 97%.

Turning to `COCc1ccc(Cn2ccc(C(=O)c3cncnc3N[C@@H]3C[C@H](COS(N)(=O)=O)[C@@H](O)[C@@H]3F)c2)o1` [Compound I-41, [(1R,2R,3R,4R)-3-fluoro-2-hydroxy-4-({5-[(1-{[5-(methoxymethyl)-2-furyl]methyl}-1H-pyrrol-3-yl)carbonyl]pyrimidin-4-yl}amino)cyclopentyl]methyl sulfamate], the IC50 is below 10 nM and the inhibition at 0.111 µM was found to be 94%.

As to `NS(=O)(=O)OC[C@H]1C[C@@H](Nc2ncncc2C(=O)c2ccn(Cc3cccc(I)c3)n2)[C@@H](F)[C@@H]1O` [Compound I-42, {(1R,2R,3R,4R)-3-fluoro-2-hydroxy-4-[(5-{[1-(3-iodobenzyl)-1H-pyrazol-3-yl]carbonyl}pyrimidin-4-yl)amino]cyclopentyl}methyl sulfamate], the IC50 is below 10 nM and the inhibition at 0.111 µM was 99%.

As for `NS(=O)(=O)OC[C@H]1C[C@@H](Nc2ncncc2C(=O)c2ccn(Cc3ccc(Cl)c(Br)c3)c2)C[C@@H]1O` [Compound I-43, {(1R,2S,4R)-4-[(5-{[1-(3-bromo-4-chlorobenzyl)-1H-pyrrol-3-yl]carbonyl}pyrimidin-4-yl)amino]-2-hydroxycyclopentyl}methyl sulfamate], the IC50 was below 10 nM and the inhibition at 0.111 µM is 98%.

As for `NS(=O)(=O)OC[C@H]1C[C@@H](Nc2ncncc2C(=O)c2cc(F)n(Cc3cccc(Br)c3)c2)[C@@H](F)[C@@H]1O` [Compound I-44, {(1R,2R,3R,4R)-4-[(5-{[1-(3-Bromobenzyl)-5-fluoro-1H-pyrrol-3-yl]carbonyl}pyrimidin-4-yl)amino]-3-fluoro-2-hydroxycyclopentyl}methyl sulfamate], the IC50 was below 10 nM and the inhibition at 0.111 µM was determined as 99%.

In the case of `Cn1nc(C(F)(F)F)cc1Cn1ccc(C(=O)c2cncnc2N[C@@H]2C[C@H](COS(N)(=O)=O)[C@@H](O)C2)c1` [Compound I-45, [(1R,2S,4R)-2-hydroxy-4-({5-[(1-{[1-methyl-3-(trifluoromethyl)-1H-pyrazol-5-yl]methyl}-1H-pyrrol-3-yl)carbonyl]pyrimidin-4-yl}amino)cyclopentyl]methyl sulfamate], the IC50 was in the range of 10 to 100 nM and the inhibition at 0.111 µM was 93%.

For the compound `NS(=O)(=O)OC[C@H]1C[C@@H](Nc2ncncc2C(=O)c2ccn(Cc3ccc(C(F)(F)F)c(F)c3)n2)[C@H](O)[C@@H]1O` [Compound I-46, [(1R,2R,3S,4R)-4-{[5-({1-[3-fluoro-4-(trifluoromethyl)benzyl]-1H-pyrazol-3-yl}carbonyl)pyrimidin-4-yl]amino}-2,3-dihydroxycyclopentyl]methyl sulfamate], the IC50 is below 10 nM and the inhibition at 0.111 µM came out at 96%.

Regarding `NS(=O)(=O)OC[C@H]1C[C@@H](Nc2ncncc2C(=O)c2ccn(Cc3ccc(Cl)cc3)n2)C[C@@H]1O` [Compound I-47, {(1R,2S,4R)-4-[(5-{[1-{4-chlorobenzyl)-1H-pyrazol-3-yl]carbonyl}pyrimidin-4-yl)amino]-2-hydroxycyclopentyl}methyl sulfamate], the IC50 is below 10 nM and the inhibition at 0.111 µM was determined as 98%.

With `NS(=O)(=O)OC[C@H]1C[C@@H](Nc2ncncc2C(=O)c2ccn(Cc3ccc4ccccc4c3)n2)C[C@@H]1O` [Compound I-48, {(1R,2S,4R)-2-hydroxy-4-[(5-{[1-(2-naphthylmethyl)-1H-pyrazol-3-yl]carbonyl}pyrimidin-4-yl)amino]cyclopentyl}methyl sulfamate], the IC50 is below 10 nM and the inhibition at 0.111 µM came to 96%.

`NS(=O)(=O)OC[C@H]1C[C@@H](Nc2ncncc2C(=O)c2ccn(Cc3sc4ccccc4c3Cl)c2)[C@@H](F)[C@@H]1O` [Compound I-49, [(1R,2R,3R,4R)-4-{[5-({1-[(3-chloro-1-benzothiophen-2-yl)methyl]-1H-pyrrol-3-yl}carbonyl)pyrimidin-4-yl]amino}-3-fluoro-2-hydroxycyclopentyl]methyl sulfamate]: the IC50 was below 10 nM and the inhibition at 0.111 µM is 93%.

For `NS(=O)(=O)OC[C@H]1C[C@@H](Nc2ncncc2C(=O)c2ccn(Cc3cc(C(F)(F)F)ccc3Cl)n2)C[C@@H]1O` [Compound I-50, [(1R,2S,4R)-4-{[5-({1-[2-chloro-5-(trifluoromethyl)benzyl]-1H-pyrazol-3-yl}carbonyl)pyrimidin-4-yl]amino}-2-hydroxycyclopentyl]methyl sulfamate], the IC50 is below 10 nM and the inhibition at 0.111 µM was 99%.

As to `Cc1ccnc(Cn2ccc(C(=O)c3cncnc3N[C@@H]3C[C@H](COS(N)(=O)=O)[C@@H](O)[C@H]3O)n2)c1` [Compound I-51, [(1R,2R,3S,4R)-2,3-dihydroxy-4-{[5-({1-[(4-methylpyridin-2-yl)methyl]-1H-pyrazol-3-yl}carbonyl)pyrimidin-4-yl]amino}cyclopentyl]methyl sulfamate], the IC50 is below 10 nM and the inhibition at 0.111 µM was 100%.
